Laboratory results: paper PMC8092209, “Structural Basis of Ligand Selectivity by a Bacterial Adhesin Lectin Involved in Multispecies Biofilm Formation” (mBio, 2021)
Several values for one entry are separate records, joined by “and”; a condition that tells them apart may be missing. Equal entries are not always repeated. Where two headings read alike, the source gives them in different places.

Legend:
Assay type in all cases: binding
MpPA14 [1] = target: T1, MpPA14 (Marinomonas primoryensis, UniProt A1YIY3); experiment: Second glycan array (32 polysaccharides, Max Planck Institute for Marine Microbiology); conditions: for Binding of MpPA14 (RFUs): normalized signal intensity, maximal mean set to 100, cutoff of 5
Excerpt: To expand the repertoire of glycans beyond glucans and mannans, we performed a second focused microarray composed of 32 polysaccharides found in microbes such as fungi and bacteria, as well as in macroalgae and plants (Fig. 4B). […] In addition, MpPA14 interacted avidly with fucoidans from macroalgae. […] This conformer is not present in the arabinan polymer composed of 1,5-linked α-L-arabino-furanoses, which are then not free to transition to the pyranose form. Similarly, since the MpPA14 binds galactose via the 1,2-diol (β-anomer) (Fig. 3H), the lectin cannot interact with galactans, as they are polymers of β-1,4-D-galactose (Fig. 4B and Table S5).
The second glycan array was performed at the Max Planck Institute for Marine Microbiology (Bremen, Germany). The array contained duplicates of 32 polysaccharides, including those from macroalgae, bacteria, fungi, and land plants (see details in Table S5 in the supplemental material). N-terminally His-tagged MpPA14 was incubated with the array, and binding of the lectin to the polysaccharides was detected by an anti-His tag secondary antibody conjugated to alkaline phosphatase (Sigma-Aldrich). Microarray probing and quantification were performed as previously described ([45]). Maximal mean (average of the duplicates) signal intensity was set to 100, and the rest of values were normalized accordingly. A cutoff of 5 was applied ([58]).

MpPA14 [2] = target: T1, MpPA14; experiment: First glycan array (fungal, bacterial and plant polysaccharide array set 2, Imperial College); conditions: for binding to MpPA14 in first glycan array (in words): GFP-MpPA14; for Binding of MpPA14 (RFUs): GFP-MpPA14 50 μg/ml, Alexa Fluor 647 anti-GFP antibody, mean of duplicates
MpPA14 [3] = target: T1, MpPA14; experiment: Dextran-based comparative competition assay (MpPA14)
Excerpt: To gain insight into the binding specificity of MpPA14, we investigated the relative affinity of various monosaccharides for the lectin by a comparative competition assay ([12]). MpPA14 bound to Superdex resin was competitively released into solution by the progressive addition of free sugars. The released protein concentrations measured by absorbance at 280 nm were plotted as a function of free sugar concentration to produce semiquantitative binding curves (Fig. 1A and B). The apparent dissociation constant (Kdapp) calculated from these binding curves was used as a relative measure of affinity for each assayed sugar (Table 1). […] D-Ribose bound […] more strongly than its derivative 2-deoxy-D-ribose (Kdapp of 6.8 mM as opposed to 18 mM; Fig. 1B and Table 1).
The dextran resin competition assay was performed as previously described for MhPA14 ([12]). Briefly, Superdex 200 (S200) resin was washed twice with 50 mM Tris-HCl (pH 9), 150 mM NaCl, and 5 mM CaCl2. One ml of 1 mg/ml MpPA14 with green fluorescent protein (GFP) fused to its N terminus (GFP-MpPA14) or VcPA14 labeled with FITC was suspended with 300 μl of equilibrated Superdex 200 (S200) resin. Following an incubation period with gentle mixing, the S200 resin bound with GFP-MpPA14 was pelleted by centrifugation. The pellet was washed twice with 50 mM Tris-HCl (pH 9), 150 mM NaCl, and 5 mM CaCl2, and the A280 of the supernatant from the second wash was used as the baseline reading. Next, after resuspension in the same buffer, aliquots of 1.67 μmol saccharide were sequentially added to the solution six or seven times, with the A280 of the supernatant being measured after each addition to quantify the release of lectin. The final addition of saccharide was […]. Data from the dextran affinity assay were plotted using GraphPad Prism after subtracting the background. Next, the data were fitted to a nonlinear regression of one-site-specific binding, which follows the model y/Bmax = x/(Kd + x), with Bmax as the maximum specific binding and Kd as the equilibrium binding constant.

[4] = GFP-MpPA14 bound to Superdex 200 resin released by free sugar, A280, pH 9, 5 mM CaCl2, – = no detectable binding (footnote a), read-out: Kdapp (apparent dissociation constant)

T1 sequence (A1YIY3 entry or part of it): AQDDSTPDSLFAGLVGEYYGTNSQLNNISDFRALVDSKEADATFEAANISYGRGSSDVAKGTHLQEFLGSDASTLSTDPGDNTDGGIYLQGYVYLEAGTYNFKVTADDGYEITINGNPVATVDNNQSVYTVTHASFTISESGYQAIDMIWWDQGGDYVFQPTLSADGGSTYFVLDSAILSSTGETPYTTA

Scleroglucan (β-(1→3)-D-glucan backbone with 1→6 branches)
binding to MpPA14 in second glycan array (in words) (MpPA14 [1]): significant binding | Binding of MpPA14 (RFUs) (MpPA14 [1]): 65 RFUs

N -Mannoprotein (α-1→6-mannan backbone with oligomeric α-(1→2)-, α-(1→3)-, and β-(1→2)-mannan branches
binding to MpPA14 in first glycan array (in words) (MpPA14 [2]): moderate lectin-glycan interactions | Binding of MpPA14 (RFUs) (MpPA14 [2]): 17438 RFUs

Mannan (β-(1→4)-D-mannan) [Mannan (Ivory nut)]
Binding of MpPA14 (RFUs) (MpPA14 [1]): 15 RFUs

CO[C@@H]([C@H](O)[C@H](O)CO)[C@@H](O)C=O [3-O-methyl-glucose, 3-O-methyl-D-glucose]
Kd (MpPA14 [3]): 5700 µM

β-(1→4)-D-galactan
binding to MpPA14 in second glycan array (in words) (MpPA14 [1]): did not bind | Binding of MpPA14 (RFUs) (MpPA14 [1]): 0 RFUs

Grifolan (β-(1→3)-D-glucan backbone, highly branched oligomers)
binding to MpPA14 in first glycan array (in words) (MpPA14 [2]): bound most avidly | Binding of MpPA14 (RFUs) (MpPA14 [2]): 39935 RFUs

O=CC[C@@H](O)[C@H](O)[C@H](O)CO [2-Deoxy-glucose, 2-deoxy-glucose]
Kd (MpPA14 [3]): 1370 µM and 1400 µM

Fucoidan [Fucoidan (Ascophyllum nodosum)]
binding to MpPA14 in second glycan array (in words) (MpPA14 [1]): strongest MpPA14-binding fucoidans | Binding of MpPA14 (RFUs) (MpPA14 [1]): 77 RFUs

OC[C@H]1OC(O)[C@@H](O)[C@@H](O)[C@@H]1O (stereo partly drawn) [Mannose, D-Mannose]
Kd (MpPA14 [3]): 1700 µM

Curdlan (β-(1→3)-D-glucan)
binding to MpPA14 in first glycan array (in words) (MpPA14 [2]): negligible or no detectable binding | Binding of MpPA14 (RFUs) (MpPA14 [2]): 167 RFUs

Partially acetylated alginate
Binding of MpPA14 (RFUs) (MpPA14 [1]): 0 RFUs

COC1OC(CO)C(O)C(O)C1O [Methyl-α-glucose, methyl-α-D-glucose]
Kd (MpPA14 [3]; [4]): 2100 µM

Laminarin (β-(1→3)-D-glucan backbone with 1→6 branches) [Laminarin (Laminaria digitata)]
Binding of MpPA14 (RFUs) (MpPA14 [1]): 41 RFUs

Mannan (α-(1→6)-D-mannan backbone, α-(1→2)-,α-(1→3)-mannan branches) [Mannan (Saccharomyces cerevisiae)]
binding to MpPA14 in first glycan array (in words) (MpPA14 [2]): weak binding | Binding of MpPA14 (RFUs) (MpPA14 [2]): 3808 RFUs | binding to MpPA14 in second glycan array (in words) (MpPA14 [1]): no detectable interaction | Binding of MpPA14 (RFUs) (MpPA14 [1]): 0 RFUs

Xyloglucan
binding to MpPA14 in second glycan array (in words) (MpPA14 [1]): did not bind | Binding of MpPA14 (RFUs) (MpPA14 [1]): 0 RFUs

Ulvan
Binding of MpPA14 (RFUs) (MpPA14 [1]): 34 RFUs

Fucoidan [Fucoidan (Laminaria)]
Binding of MpPA14 (RFUs) (MpPA14 [1]): 69 RFUs

Lentinan (β-(1→3)-D-glucan backbone, β-(1→3)-D-glucan branches)
binding to MpPA14 in first glycan array (in words) (MpPA14 [2]): bound most avidly | Binding of MpPA14 (RFUs) (MpPA14 [2]): 41060 RFUs

Galactomannan (β-(1→4)-D-mannan backbone)
binding to MpPA14 in second glycan array (in words) (MpPA14 [1]): did not bind | Binding of MpPA14 (RFUs) (MpPA14 [1]): 0 RFUs

Fucoidan [Fucoidan (Fucus serratus)]
Binding of MpPA14 (RFUs) (MpPA14 [1]): 53 RFUs

Pustulan (β-(1→6)-D-glucan) [Pustulan (Umbilicaria papullosa)]
Binding of MpPA14 (RFUs) (MpPA14 [2]): 1565 RFUs

O=C[C@H](O)[C@@H](O)[C@H](O)CO [Xylose]
Kd (MpPA14 [3]): 11000 µM

Glucurono-XyloMannan (α-(1→3)-Mannan with Xyl, GlcA and Fuc branches)
binding to MpPA14 in first glycan array (in words) (MpPA14 [2]): negligible or no detectable binding | Binding of MpPA14 (RFUs) (MpPA14 [2]): 75 RFUs | Binding of MpPA14 (RFUs) (MpPA14 [1]): 0 RFUs

Polygalacturonic acid (α-(1→4)-D-galacturonic acid)
Binding of MpPA14 (RFUs) (MpPA14 [1]): 0 RFUs

OC1OC[C@H](O)[C@H](O)[C@H]1O (mixture of isomers) [L-Arabinose]
Kd (MpPA14 [3]): 2200 µM

GN6-AO (chitin, β-1→4-GlcNAc)
binding to MpPA14 in first glycan array (in words) (MpPA14 [2]): negligible or no detectable binding | Binding of MpPA14 (RFUs) (MpPA14 [2]): 178 RFUs

Pustulan (β-(1→6)-D-glucan) [Pustulan (Lasallia pustulata)]
binding to MpPA14 in second glycan array (in words) (MpPA14 [1]): significant binding | Binding of MpPA14 (RFUs) (MpPA14 [1]): 86 RFUs

β-glucan Mixed β-(1→3)/β-(1→4)-D-glucan [β-glucan (Barley)]
binding to MpPA14 in first glycan array (in words) (MpPA14 [2]): negligible or no detectable binding | Binding of MpPA14 (RFUs) (MpPA14 [2]): 23 RFUs | Binding of MpPA14 (RFUs) (MpPA14 [1]): 0 RFUs

Pullulan (α-(1→4)(1→6)-D-glucan)
binding to MpPA14 in first glycan array (in words) (MpPA14 [2]): bound most avidly | Binding of MpPA14 (RFUs) (MpPA14 [2]): 58106 RFUs | Binding of MpPA14 (RFUs) (MpPA14 [1]): 37 RFUs

Fucoidan [Fucoidan (Sargassum)]
binding to MpPA14 in second glycan array (in words) (MpPA14 [1]): strongest MpPA14-binding fucoidans | Binding of MpPA14 (RFUs) (MpPA14 [1]): 84 RFUs

Laminarin (β-(1→3)-D-glucan backbone with 1→6 branches) [Laminarin (Eisenia bicyclis)]
Binding of MpPA14 (RFUs) (MpPA14 [1]): 39 RFUs

α-(1→5)-L-arabinan
binding to MpPA14 in second glycan array (in words) (MpPA14 [1]): did not bind | Binding of MpPA14 (RFUs) (MpPA14 [1]): 0 RFUs

O[C@H]1[C@H](O)[C@@H](O)[C@H](O)[C@@H](O)[C@H]1O [Inositol, myo-inositol]
Kd (MpPA14 [3]): 2700 µM

Fucoidan [Fucoidan (Cladosiphon)]
binding to MpPA14 in second glycan array (in words) (MpPA14 [1]): strongest MpPA14-binding fucoidans | Binding of MpPA14 (RFUs) (MpPA14 [1]): 100 RFUs

Pachyman (β-(1→3)-D-glucan backbone with 1→6 branches)
binding to MpPA14 in second glycan array (in words) (MpPA14 [1]): significant binding | Binding of MpPA14 (RFUs) (MpPA14 [1]): 75 RFUs

Galactofucan
Binding of MpPA14 (RFUs) (MpPA14 [1]): 40 RFUs

Dextran (α-(1→6)-D-glucan backbone)
binding to MpPA14 in first glycan array (in words) (MpPA14 [2]): bound most avidly | Binding of MpPA14 (RFUs) (MpPA14 [2]): 41390 RFUs

Lichenan Mixed β-(1→3)/β-(1→4)-D-glucan [Lichenan (Lichen)]
Binding of MpPA14 (RFUs) (MpPA14 [2]): 349 RFUs

β-glucan Mixed β-(1→3)/β-(1→4)-D-glucan [β-glucan (Oat)]
binding to MpPA14 in first glycan array (in words) (MpPA14 [2]): negligible or no detectable binding | Binding of MpPA14 (RFUs) (MpPA14 [2]): 0 RFUs

Glucomannan (β-(1→4)-D-mannose and D-glucose backbone)
Binding of MpPA14 (RFUs) (MpPA14 [1]): 0 RFUs

Arabinoxylan
Binding of MpPA14 (RFUs) (MpPA14 [1]): 0 RFUs

NSG (β-(1→3)-D-glucan backbone, β-(1→3)-D-glucan branches)
Binding of MpPA14 (RFUs) (MpPA14 [2]): 2319 RFUs

Carboxymethyl cellulose (β-(1→4)-D-glucan)
Binding of MpPA14 (RFUs) (MpPA14 [1]): 28 RFUs

Alginate
Binding of MpPA14 (RFUs) (MpPA14 [1]): 22 RFUs

O=CC[C@H](O)[C@H](O)CO [2-Deoxy-ribose, 2-deoxy-D-ribose]
Kd (MpPA14 [3]): 18000 µM

Fucoidan [Fucoidan (Fucus vesiculosus)]
Binding of MpPA14 (RFUs) (MpPA14 [1]): 29 RFUs

O=C[C@H](O)[C@@H](O)[C@@H](O)[C@H](O)CO [Galactose, D-galactose]
Kd (MpPA14 [3]): 4100 µM

Rhamnogalacturonan I
Binding of MpPA14 (RFUs) (MpPA14 [1]): 0 RFUs

Lichenan (β-(1→3)(1→4)-D-glucan) [Lichenan (Icelandic moss)]
Binding of MpPA14 (RFUs) (MpPA14 [1]): 44 RFUs

O=C[C@H](O)[C@H](O)[C@H](O)CO [Ribose, D-Ribose]
Kd (MpPA14 [3]; [4]): 6800 µM

Mannoprotein (mannose rich)
binding to MpPA14 in first glycan array (in words) (MpPA14 [2]): negligible or no detectable binding | Binding of MpPA14 (RFUs) (MpPA14 [2]): 0 RFUs

PGPGG (β-(1→3)-D-glucan backbone, β-(1→3)-D-glucan branches)
Binding of MpPA14 (RFUs) (MpPA14 [2]): 30143 RFUs

Porphyran
binding to MpPA14 in second glycan array (in words) (MpPA14 [1]): did not bind | Binding of MpPA14 (RFUs) (MpPA14 [1]): 0 RFUs

β-(1→4)-D-xylan
binding to MpPA14 in second glycan array (in words) (MpPA14 [1]): did not bind | Binding of MpPA14 (RFUs) (MpPA14 [1]): 0 RFUs
